# Tested on: MPTP-(1-methyl-4-phenyl-1,2,3,6-tetrahydropyridine) treated monkeys
# Assay: Parkinsonian score in MPTP-treated monkeys after administration of sunipetron
# Format: in vivo
# Details: 0.5 mg/kg or 1.0 mg/kg, rated at 4 time points vs vehicle, estimated plasma levels (FIG. 1)
# Method: Neurol., 35:655-661, 1994, and Klockgether et al., Ann. Neurol., 30:717-723, 1991.
# The behavioral effects of administration of sunipetron on parkinsonian score in MPTP-(1-methyl-4-phenyl-1,2,3,6-tetrahydropyridine) treated monkeys was determined. The methods employed are described in Greenemyre et al., supra and Klockgether et al., supra.
# Briefly, parkinsonian monkeys were administered 0.5 mg/kg or 1.0 mg/kg of sunipetron and the severity of parkinsonian symptoms was rated at each of 4 time points after drug administration as compared with administration of a control solution (“Vehicle”).
# The minimum effective plasma level was approximately 100 ng/ml.
structure (smiles),measurement,value
O=C1CCC(=O)N1C[C@H]1CC[C@H]2CN(c3ncccn3)CCN2C1 [sunipetron],minimum effective plasma level (reduction in parkinsonian score),approximately 100 ng/ml
same,plasma level at which the maximum reduction in parkinsonian score was attained,approximately 200 ng/ml

# Source: patent US6608064B2, “Pharmaceutical agents for the treatment of Parkinson's disease, ADHD and microadenomas” (Pfizer Inc, priority 1998, dated 2003)
